Laboratory results published in patent US20040029758A1 (priority 2000, published 2004).

Tested on: Legionella

Structure (SMILES): OCl [sodium hypochlorite]
- Legionella test of bath water: detected
- Count of the bacteria of the genus Legionella in bath water (start 300 CFU/100 ml, free residual chlorine max 2 mg/l for 2 hours, then 3 days at sodium hypochlorite 0.4 mg/l, 2000 bathers per day): 1300 CFU/100 ml
